Test results from ChEMBL document CHEMBL3399925, “Synthesis and antimycobacterial properties of ring-substituted 6-hydroxynaphthalene-2-carboxanilides” (Bioorg Med Chem, 2015).
In brackets after ≈: the same amount, converted by molar mass.

Columns and labels:
[1] = test system: Mycobacterium tuberculosis; assay: microbe, parasite or virus in culture; type: functional; conditions: H37Ra ATCC 25177, 168 h
Description: Antimycobacterial activity against Mycobacterium tuberculosis H37Ra ATCC 25177 incubated for 7 days by alamar blue assay

[2] = test system: THP-1; assay: Cytotoxicity against human THP1 cells after 24 hrs by WST1 assay; type: cell-based; conditions: THP-1, 24 h
[3] = test system: Mycobacterium avium subsp. paratuberculosis; assay: Antimycobacterial activity against Mycobacterium avium subsp. paratuberculosis isolate CIT03 incubated for 11 days by alamar blue assay; type: functional; conditions: isolate CIT03, 264 h
[4] = Lipophilicity, log K of the compound by HPLC method; type: physicochemical
[5] = test system: Mycobacterium avium complex sp.; assay: Antimycobacterial activity against Mycobacterium avium complex isolate CIT19/06 incubated for 5 days by alamar blue assay; type: functional; conditions: isolate CIT19/06, 120 h
[6] = test system: Mycobacterium tuberculosis; assay: Antimycobacterial activity against Mycobacterium tuberculosis H37Ra ATCC 25177 assessed as cell viability at 8 ug/ml incubated for 7 days by MTT assay; type: functional

Compound	MIC90 [1] [µM]	IC50 [2] [µM]	MIC90 [3] [µM]	log K [4]	MIC90 [5] [µM]	Activity [6] [%]
O=C(Nc1ccccc1)c1ccc2cc(O)ccc2c1	30 (≈ 7.9 µg/mL)	> 30	30 (≈ 7.9 µg/mL)	0.6612	57 (≈ 15 µg/mL)	–
COc1ccccc1NC(=O)c1ccc2cc(O)ccc2c1	27 (≈ 7.92 µg/mL)	> 30	27 (≈ 7.92 µg/mL)	0.6039	51 (≈ 15 µg/mL)	–
COc1cccc(NC(=O)c2ccc3cc(O)ccc3c2)c1	27 (≈ 7.92 µg/mL)	> 30	27 (≈ 7.92 µg/mL)	0.4463	102 (≈ 29.9 µg/mL)	62.2
COc1ccc(NC(=O)c2ccc3cc(O)ccc3c2)cc1	27 (≈ 7.92 µg/mL)	> 30	27 (≈ 7.92 µg/mL)	0.3313	852 (≈ 250 µg/mL)	69
Cc1ccccc1NC(=O)c1ccc2cc(O)ccc2c1	29 (≈ 8.04 µg/mL)	> 30	29 (≈ 8.04 µg/mL)	0.369	29 (≈ 8.04 µg/mL)	–
Cc1cccc(NC(=O)c2ccc3cc(O)ccc3c2)c1	29 (≈ 8.04 µg/mL)	> 30	29 (≈ 8.04 µg/mL)	0.6086	54 (≈ 15 µg/mL)	–
Cc1ccc(NC(=O)c2ccc3cc(O)ccc3c2)cc1	29 (≈ 8.04 µg/mL)	> 30	29 (≈ 8.04 µg/mL)	0.6227	451 (≈ 125 µg/mL)	–
O=C(Nc1ccccc1F)c1ccc2cc(O)ccc2c1	107 (≈ 30.1 µg/mL)	–	53 (≈ 14.9 µg/mL)	0.4921	107 (≈ 30.1 µg/mL)	–
O=C(Nc1cccc(F)c1)c1ccc2cc(O)ccc2c1	28 (≈ 7.88 µg/mL)	–	53 (≈ 14.9 µg/mL)	0.5766	53 (≈ 14.9 µg/mL)	–
O=C(Nc1ccc(F)cc1)c1ccc2cc(O)ccc2c1	28 (≈ 7.88 µg/mL)	–	53 (≈ 14.9 µg/mL)	0.6726	213 (≈ 59.9 µg/mL)	–
O=C(Nc1ccccc1Cl)c1ccc2cc(O)ccc2c1	27 (≈ 8.04 µg/mL)	> 30	840 (≈ 250 µg/mL)	0.6777	50 (≈ 14.9 µg/mL)	38
O=C(Nc1cccc(Cl)c1)c1ccc2cc(O)ccc2c1	27 (≈ 8.04 µg/mL)	–	840 (≈ 250 µg/mL)	0.7684	101 (≈ 30.1 µg/mL)	46.5
O=C(Nc1ccc(Cl)cc1)c1ccc2cc(O)ccc2c1	27 (≈ 8.04 µg/mL)	> 30	50 (≈ 14.9 µg/mL)	0.7947	202 (≈ 60.1 µg/mL)	43.8
O=C(Nc1ccccc1Br)c1ccc2cc(O)ccc2c1	175 (≈ 59.9 µg/mL)	> 30	23 (≈ 7.87 µg/mL)	0.7486	88 (≈ 30.1 µg/mL)	–
O=C(Nc1cccc(Br)c1)c1ccc2cc(O)ccc2c1	23 (≈ 7.87 µg/mL)	> 30	23 (≈ 7.87 µg/mL)	0.8767	175 (≈ 59.9 µg/mL)	41.2
O=C(Nc1ccc(Br)cc1)c1ccc2cc(O)ccc2c1	23 (≈ 7.87 µg/mL)	–	731 (≈ 250 µg/mL)	0.8884	1460 (≈ 500 µg/mL)	–
O=C(Nc1ccccc1C(F)(F)F)c1ccc2cc(O)ccc2c1	91 (≈ 30.1 µg/mL)	–	377 (≈ 125 µg/mL)	0.5623	181 (≈ 60 µg/mL)	–
O=C(Nc1cccc(C(F)(F)F)c1)c1ccc2cc(O)ccc2c1	24 (≈ 7.95 µg/mL)	> 30	24 (≈ 7.95 µg/mL)	0.9558	91 (≈ 30.1 µg/mL)	42.9
O=C(Nc1ccc(C(F)(F)F)cc1)c1ccc2cc(O)ccc2c1	24 (≈ 7.95 µg/mL)	> 30	91 (≈ 30.1 µg/mL)	1.0133	91 (≈ 30.1 µg/mL)	–
O=C(Nc1ccccc1[N+](=O)[O-])c1ccc2cc(O)ccc2c1	97 (≈ 29.9 µg/mL)	> 30	26 (≈ 8.02 µg/mL)	0.8553	195 (≈ 60.1 µg/mL)	–
O=C(Nc1cccc([N+](=O)[O-])c1)c1ccc2cc(O)ccc2c1	26 (≈ 8.02 µg/mL)	> 30	26 (≈ 8.02 µg/mL)	0.8533	97 (≈ 29.9 µg/mL)	–
O=C(Nc1ccc([N+](=O)[O-])cc1)c1ccc2cc(O)ccc2c1	26 (≈ 8.02 µg/mL)	–	97 (≈ 29.9 µg/mL)	0.5911	49 (≈ 15.1 µg/mL)	–
NNC(=O)c1ccncc1 [ISONIAZID]	58 (≈ 7.95 µg/mL)	–	1820 (≈ 250 µg/mL)	–	3650 (≈ 500 µg/mL)	–
CO[C@H]1/C=C/O[C@@]2(C)Oc3c(C)c(O)c4c(O)c(c(/C=N/N5CCN(C)CC5)c(O)c4c3C2=O)NC(=O)/C(C)=C\C=C\[C@H](C)[C@H](O)[C@@H](C)[C@@H](O)[C@@H](C)[C@H](OC(C)=O)[C@@H]1C [RIFAMPIN]	10 (≈ 8.23 µg/mL)	–	109 (≈ 89.7 µg/mL)	–	10 (≈ 8.23 µg/mL)	–
